From patent publication US20020177120A1, “ASSAYS FOR APOTOSIS MODULATORS” (priority 1999, published 2002) come the findings set out here.

Common to all, as to assay type: cell-based, human
The subject of one assay is F10-24-2 control cells. The experiment in a line: FRET reporter control assay in F10-24-2 (SnAT) cells. An excerpt:
Transfection of pcDNA3VH-SgAT and pcDNA3VH-SnAT into U-138 cells (using methods described above) resulted initially in few colonies and FRET signal was lost in many clones during expansion, however, from among the various subclones the F9-1-13 (pcDNA3VH-SgAT transfected; ATCC No. PTA-84) and F10-24-2 (pcDNA3-SnAT transfected) subclones were eventually expanded and shown to express stable FRET signals. As desired, the FRET signal expressed in F9-1-13 decreased in response to both staurosporin and anti-Fas antibody treatment of cells, while the FRET signal expressed by the F10-24-2 control cells, (i.e., lacking a caspase substrate domain), was unaffected following staurosporin or anti-Fas antibody treatment. […] F9-1-13 therefore appeared suitable for microtiter assays, and perhaps use in HTS assays for screening to identify and select modulators of apoptosis.

In the next assay the test system is F1-1-42 cells. Nature of the assay: Staurosporin-induced apoptosis in F1-1-42 SAT FRET reporter cells (FRET signal, western blot, caspase-3, morphology). As for the experimental part:
Detecting Intracellular Changes in a FRET Reporter in Cells Undergoing Apoptosis: Having established that SAT reporter protein synthesized in HEK293 cells could be cleaved ex vivo, i.e., in cell lysates by trypsin (above), an initial in vivo intracellular assay was conducted using the selected F1-1-42 clonal cell line and staurosporin to induce apoptosis. […] In these experiments the F1-1-42 cells were plated at a density of 4×10^5 cells/0.5 ml in each well of a 24-well microtiter plate. After overnight incubation, apoptosis was induced by adding staurosporin to a final concentration of 5 μM, and using vehicle (0.25% DMSO) as a negative control. Assays for caspase-3 were used to confirm that apoptosis was induced. […] Subsequent testing determined that significant changes in FRET signal were first detectable at about 8 hours after addition of staurosporin and were maximal by 24 hrs post-induction.
For orientation: Immunoblotting shows a protein as a band on a membrane.

Assay [1] concerns caspase-3. The experiment in a line: Caspase-3 assay in SAT-reporter-transformed HEK293 cells after apoptosis inducers. Conditions: confluent HEK293, 1-5 μM staurosporin for 8 hrs.
In another assay the test system is HEK293 cells. The experiment in a line: Annexin V apoptotic membrane assay in SAT-reporter-transformed HEK293 cells. The following applies: staurosporin, 4 hrs. An excerpt:
A test system was constructed to evaluate SAT reporter expression and feasibility of detecting FRET signal changes in mammalian cells in microtiter assays. The human embryonic kidney-derived HEK293 cell line was chosen as a host because of its relatively high transfection efficiency, rapid growth, easy maintenance and suitability for microplate assay formats. In preliminary experiments in which HEK293 cells were transfected with pcDNA3-Emerald, transformed cells were fluorescent and there was no loss of fluorescence, or obvious detrimental effects on cell morphology or growth, in a selected pool of cells (i.e., mixed populations of cells) over the course of one month. […] Optimal conditions for transfection of HEK 293 cells with SAT-reporter plasmid were determined. Cells transfected using LIPOFECTAMINE (Life Technologies) and selected in G418 (Life Technologies) expressed full-length SAT reporter protein as determined by western analysis of transformed HEK293 cells after two weeks of in vitro selection. […] Under these conditions of treatment with staurosporin only about half of the SAT-reporter-transformed HEK293 cells in the population were apoptotic at 4 hrs. as determined using the Annexin V assay (Materials and Methods). […]

For a further assay, the system named is U-138 cells. Nature of the assay: FRET signal in SAT-transfected U-138 cells. Conditions: pcDNA3VH-SAT transfected U-138 parental cultures. An excerpt:
Stable expression of the SAT reporter in U-138 cells was investigated by transfecting cultures with pcDNA3VH-SAT using calcium phosphate (Materials and Methods), and then selecting in medium containing G418 ([…]). […] The parental culture showing the strongest fluorescence and best growth characteristics was subcloned. Unexpectedly, the ability of the subclones to produce a staurosporin-inducible change in FRET signal was not stable, i.e., disappearing at passages 9, 11 and 13, but then reappearing at passage 16. While it was speculated that this phenomena may have resulted from some difference in expression and/or regulation of apoptosis or FRET reporter in sub-cultures of cells, these properties were not considered desirable and these SAT-transfected U-138 cell lines were discontinued in hopes that an improved reporter construct might solve the problem of irreproducibility.

For assay [2], the system named is caspase-3. The experiment in a line: Inducibility and kinetics of apoptosis in U-138 cells (caspase-3 activity, inter-nucleosomal DNA fragmentation). As to the method:
DNA Fragmentation ELISA: Apoptosis-induced inter-nucleosomal fragmentation of chromosomal DNA was quantified using the “Cell Death Detection ELISA^PLUS” (Boehringer Mannheim) according to the manufacturer's instructions. Briefly, ˜10^4 cells/well were plated on a poly-D-lysine-coated 96-well plate and treated for various periods of times with different apoptosis-inducing agents. The cells were lysed and the nuclei and membranes were pelleted. An aliquot of the cytoplasm-containing supernatant was then transferred to a streptavidin-coated microtiter plate and incubated with anti-histone-biotin and anti-DNA-peroxidase, resulting in the formation of “sandwich” antibody complexes, i.e., (anti-DNA-peroxidase)-(nucleosomal-DNA-containing-histone) -(anti-histone-biotin)-(streptavidin-microtiter plate). Unbound antibody was removed by washing. Peroxidase substrate (i.e., ABTS) was added and nucleosomal DNA complexes quantified by spectrophotometric analysis of the colored peroxidase reaction product.
Caspase-3 Assay: Caspase-3 activity was assayed according to the following protocol. Cells plated and treated as above were washed in 1×PBS and lysed in 1×assay buffer (1 mM DTT, 1% Triton X-100, 0.5% Tween-20 in 1×PBS, pH 7.2). […] Fluorescence readings were taken on the Cytofluor II plate reader (excitation 360 nm, emission 460 nm, 6 reads/well, gain 50).

SMILES strings stand for the structures. Where only a bound is given, the exact number is not on record here.

As to `CN[C@@H]1C[C@H]2O[C@@](C)([C@@H]1OC)n1c3ccccc3c3c4c(c5c6ccccc6n2c5c31)C(=O)NC4` [staurosporin], the “FRET signal response to inducer treatment” value in the assay on F10-24-2 control cells (reporter lacking a caspase substrate domain) is given as “unaffected”. In the assay with F10-24-2 control cells (staurosporin induction), the “FRET reporter western blot before and after induction of apoptosis” value was “no visible difference”. Besides, in the assay on F1-1-42 cells (5 μM staurosporin), the “SAT reporter cleavage by western analysis after induction” value is “cleavage of the SAT reporter” and the “caspase-3 activity after induction” value is “caspase-3 activation”. Moreover, the “FRET signal change after induction” value with F1-1-42 cells (5 μM staurosporin, 24-well plate, 4×10^5 cells/0.5 ml) is “concomitant decrease in FRET signal”. Besides, in the assay with F1-1-42 cells (after addition of staurosporin), the “time at which significant changes in FRET signal were first detectable” value is given as “about 8 hours”. Besides, the “time at which FRET signal changes were maximal” value in the assay on F1-1-42 cells (post-induction with staurosporin) was at most 24 h. Moreover, the “increase in caspase-3 activity over background” value with caspase-3 [1] is reported as 6- to 10 fold. Besides, the “cells in the population apoptotic (Annexin V assay)” value in the assay on HEK293 cells is on record as “about half”. Also, the “FRET signal change, correlated with FRET reporter cleavage in western blot” value in the assay with U-138 cells is reported as “induced changes in FRET signal”. The “time at which caspase-3 activity and inter-nucleosomal DNA fragmentation were maximally altered” value in the assay with caspase-3 [2] (5 μM staurosporin, minimal at 4 hrs., intermediate by 8 hrs.) was in the range of 16 to 24 h. The “inducibility of caspase-3 activity” value in the assay on caspase-3 [2] (30-300 μM etoposide or 1.5-15.0 μM staurosporin, 8 hrs.) is recorded as “inducible with staurosporin”.
